≈ marks a conversion by molar mass, not a printed value. Like-named read-outs stand apart in the source and are kept apart here.
Key:
H. influenzae [1] = test: Broth microdilution; type: cell-based, Haemophilus influenzae; conditions: 267 isolates
S. pneumoniae [2] = test: Broth microdilution; type: cell-based, Streptococcus pneumoniae; conditions: 275 isolates
[3] = system: group A beta-haemolytic streptococcal (GABHS) pharyngitis; test: Phase III trial, GABHS pharyngitis/tonsillitis; type: in vivo, human
P. aeruginosa = test: Disk diffusion, urine isolates of BPH patients
CA-MRSA = test: MIC, MBC; type: cell-based, Staphylococcus aureus; conditions: time kill, two strains
enterococci = test: Disk diffusion and E-test, faecal isolates of cancer patients; type: cell-based, Enterococcus; conditions: 38 strains
[4] = system: viridans group streptococci (VGS); test: MIC; type: cell-based
[5] = system: glycopeptide intermediate Staphylococcus species (GISS); test: VITEK II, screening plate and E test, blood isolates; type: cell-based, coagulase-negative Staphylococci
[6] = system: methicillin susceptible Staphylococcus aureus; test: NCCLS agar dilution MIC; type: cell-based
MDR-MRSA = test: MIC, MBC; type: cell-based, Staphylococcus aureus; conditions: time kill, two strains
[7] = system: methicillin resistant Staphylococcus aureus; test: NCCLS agar dilution MIC; type: cell-based
MSSA = test: Agar dilution MIC; type: cell-based, Staphylococcus aureus
Nocardia spp. [8] = test: Time-kill at peak-serum concentrations, seven strains; type: cell-based; conditions: of seven strains; 24, 72 h
S. pneumoniae (SPN) [9] = test: NCCLS broth microdilution, fluoroquinolones 1999–2004; type: cell-based, Streptococcus pneumoniae; conditions: Streptococcus pneumoniae, read-out: MIC90 during the six years, 1999–2004
MRSA = test: Agar dilution MIC; type: cell-based, Staphylococcus aureus
[10] = system: Streptococcus agalactiae strains P0162 and P0425; test: Microdilution; type: cell-based
Escherichia coli [11] = system: Escherichia coli
E. coli [12] = test: Disk diffusion, urine isolates of BPH patients; conditions: strains isolated after operative intervention
Nocardia spp. [13] = test: E-test on Mueller Hinton agar, 81 clinical isolates; type: cell-based
S. pneumoniae [14] = test: MIC of invasive strains, Saint George Hospital 2001–2004; type: cell-based, Streptococcus pneumoniae
H. influenzae [15] = test: Disk diffusion, sputum isolates Athens 2001–2004; type: cell-based, Haemophilus influenzae
[16] = Phase 3 trial, complicated intra-abdominal infections; type: in vivo, human
Acinetobacter = test: Disk diffusion; type: cell-based; conditions: 37 isolates selected as resistant to beta-lactams
H. influenzae (HI) = test: SENTRY Brazil, NCCLS broth microdilution; type: cell-based, Haemophilus influenzae
Salmonella spp. = test: Agar dilution susceptibility, gastroenteritis isolates Cuba; type: cell-based; conditions: 34 strains, 2002
Escherichia coli O157:H7 = test: Kirby-Bauer susceptibility; type: cell-based; conditions: 30 strains, 1990–2003
nontyphoidal Salmonella = test: Agar dilution, isolates from chickens 1998–2004; type: cell-based, Salmonella spp.
S. pneumoniae (SPN) [17] = test: SENTRY Brazil, NCCLS broth microdilution; type: cell-based, Streptococcus pneumoniae
[18] = system: Salmonella, other 49 serotypes; test: Disk diffusion, food isolates Spain; type: cell-based; conditions: n = 115
[19] = system: Salmonella serotype Typhimurium; test: Disk diffusion, food isolates Spain; type: cell-based; conditions: n = 53
[20] = system: Salmonella serotype Enteritidis; test: Disk diffusion, food isolates Spain; type: cell-based; conditions: n = 96
N.gonorrhoeae = test: microbe, parasite or virus in culture; type: cell-based; conditions: Neisseria gonorrhoeae
E. coli [21] = test: SMART 2003 Europe, microdilution; type: cell-based, Escherichia coli; conditions: 1106 isolates
K. pneumoniae = test: MIC; type: cell-based, Klebsiella pneumoniae; conditions: Klebsiella pneumoniae
Pseudomonas aeruginosa = test: MIC, strains from cystic fibrosis patients; conditions: by MIC
Enterobacteriaceae = test: SMART 2003 Europe, microdilution; type: cell-based; conditions: 1948 isolates
Escherichia coli [22] = test: Vitek 2 susceptibility, urine isolates of children; type: cell-based
Klebsiella = test: SMART 2003 Europe, microdilution; type: cell-based, Klebsiella spp.; conditions: 341 isolates
[23] = system: inducible Enterobacteriaceae; test: SMART 2003, intraabdominal isolates; type: cell-based

Molecule: CC=CC1=C(C(=O)O)N2C(=O)[C@@H](NC(=O)[C@H](N)c3ccc(O)cc3)[C@H]2SC1 [cefprozil]
- susceptible (H. influenzae [1]): 93.3%
- Susceptibility (S. pneumoniae [2]): 87.3%

Molecule: CC[C@H]1OC(=O)[C@H](C)[C@@H](O[C@H]2C[C@@](C)(OC)[C@@H](O)[C@H](C)O2)[C@H](C)[C@@H](O[C@@H]2O[C@H](C)C[C@H](N(C)C)[C@H]2O)[C@](C)(O)C[C@@H](C)CN(C)[C@H](C)[C@@H](O)[C@]1(C)O [3-day azithromycin, azithromycin]
- bacteriologic eradication at TOC (Day 24–28) ([3]; BPP population, single 2.0 g dose vs 500 mg QD for 3 days): 81.4%
- clinical cure ([3]; TOC): 96.7%
- bacteriologic recurrence at long-term follow up (Day 38–45) ([3]; in vivo): 7.7%
- diarrhoea/loose stools ([3]; most frequent adverse event): 11%

Molecule: CC1(C)S[C@@H]2[C@H](NC(=O)[C@H](NC(=O)N3CCNC3=O)c3ccccc3)C(=O)N2[C@H]1C(=O)O [azlocillin]
- resistance (P. aeruginosa): 73.3%

Molecule: teicoplanin
- Δ Log10 CFU/ml (CA-MRSA): −1.86 Log10 CFU/ml
- sensitivity of all isolated strains (enterococci): All the isolated strains were sensitive
- tolerant isolates ([4]; 83 isolates, tolerance to VA and TP): 77.6%
- MIC50 ([4]; 107 strains, 1990–2003): 0.06 µg/mL
- MIC90 ([4]; 107 strains, 1990–2003): 0.12 µg/mL
- susceptibility of all isolates ([4]; NCCLS): All isolates were susceptible
- MIC of resistant strains ([5]; 26 strains): 32 to 256 µg/mL
- MIC of intermediate sensitive strains ([5]; 47 strains): 16 µg/mL
- MIC50 ([6]; n = 41): 1 µg/mL
- MIC90 ([6]; n = 41): 1 µg/mL
- MIC range ([6]; n = 41): 0.25 to 2 µg/mL
- Δ Log10 CFU/ml (MDR-MRSA): −3.82 Log10 CFU/ml
- MIC50 ([7]; n = 53): 1 µg/mL
- MIC90 ([7]; n = 53): 2 µg/mL
- MIC range ([7]; n = 53): 0.5 to 8 µg/mL

Molecule: COc1c(N2C[C@@H]3CCCN[C@@H]3C2)c(F)cc2c(=O)c(C(=O)O)cn(C3CC3)c12 [moxifloxacin]
- MIC50 (MSSA; Staphylococcus aureus, MSSA): < 0.025 µg/mL
- MIC90 (MSSA; Staphylococcus aureus, MSSA): < 0.0625 µg/mL
- MIC range (MSSA; n = 200): 25 to 2000 µg/mL
- MIC50 [4]: 0.12 µg/mL (≈ 0.299 µM)
- MIC90 [4]: 0.25 µg/mL (≈ 0.623 µM)
- strains with bactericidal activity (≥3 log10 cfu/ml decrease) (Nocardia spp. [8]): 2 strains
- MIC90 (S. pneumoniae (SPN) [9]): 0.12 to 0.25 µg/mL (≈ 0.299 to 0.623 µM)
- MIC50 ([6]; Staphylococcus aureus): 0.06 µg/mL (≈ 0.149 µM)
- MIC90 ([6]; Staphylococcus aureus): 0.12 µg/mL (≈ 0.299 µM)
- MIC range ([6]; n = 41): 0.03 to 8 µg/mL
- MIC50 ([7]; Staphylococcus aureus): 2 µg/mL (≈ 4.98 µM)
- MIC90 ([7]; Staphylococcus aureus): 8 µg/mL (≈ 19.9 µM)
- MIC50 (MRSA; Staphylococcus aureus, MRSA): < 4 µg/mL
- MIC90 (MRSA; Staphylococcus aureus, MRSA): < 4 µg/mL
- MIC range (MRSA; n = 50): 4 µg/mL (≈ 9.96 µM)
- MIC ([10]; strain P0162 (ParC Ser79Phe, GyrA Glu85Ala)): 0.5 µg/mL (≈ 1.25 µM)
- MIC ([10]; strain P0425 (ParC Ser79Phe, GyrA Glu85Lys)): 2 µg/mL (≈ 4.98 µM)

Molecule: COc1cc(Cc2cnc(N)nc2N)cc(OC)c1OC [trimethoprim]
- resistance (Escherichia coli [11]; 1993, E.coli resistant to ampicillin): 28%
- resistance (Escherichia coli [11]; 1993, E.coli sensitive to ampicillin): 3%
- resistance (Escherichia coli [11]; 2003, E.coli resistant to ampicillin): 43%
- resistance (Escherichia coli [11]; 2003, E.coli sensitive to ampicillin): 4%

Molecule: amoxicillin/clavulanate
- resistance (E. coli [12]): 93.1%
- MIC50 (Nocardia spp. [13]): 2 µg/mL
- MIC90 (Nocardia spp. [13]): 8 µg/mL
- % S (S. pneumoniae [14]): 100%
- %R (S. pneumoniae [14]): 0%
- resistance rate (H. influenzae [15]; 2001–2002): 0%
- resistance rate (H. influenzae [15]; 2003–2004): 4.6%

Molecule: N[C@@H](C(=O)N[C@@H]1C(=O)N2C(C(=O)O)=C(Cl)CS[C@H]12)c1ccccc1 [cefaclor]
- susceptible (H. influenzae [1]): 92.1%
- Susceptibility (S. pneumoniae [2]): 82.5%

Molecule: CN(C)c1cc(NC(=O)CNC(C)(C)C)c(O)c2c1C[C@H]1C[C@H]3[C@H](N(C)C)C(O)=C(C(N)=O)C(=O)[C@@]3(O)C(O)=C1C2=O [TGC, tigecycline]
- Δ Log10 CFU/ml (CA-MRSA): −2.37 Log10 CFU/ml
- clinical cure rate at TOC, ME group ([16]; TGC 100 mg then 50 mg q12h iv, IMI/CIS 500/500 mg q6h, 5–14 days): 80.6%
- nausea ([16]; adverse events): 31.0%
- vomiting ([16]; adverse events): 25.7%
- clinical cure rate at TOC, m-mITT cohort ([16]; same regimens): 73.5%
- Δ Log10 CFU/ml (MDR-MRSA): −2.59 Log10 CFU/ml

Molecule: O=C(N[C@H](CO)[C@H](O)c1ccc([N+](=O)[O-])cc1)C(Cl)Cl [chloramphenicol]
- resistant isolates (Acinetobacter): 100.0%
- % S (H. influenzae (HI); 1998): 96%
- % S (H. influenzae (HI); 1999): 99%
- % S (H. influenzae (HI); 2000): 97%
- % S (H. influenzae (HI); 2001): 95%
- % S (H. influenzae (HI); 2002): 93%
- % S (H. influenzae (HI); 2003): 96%
- resistance (Salmonella spp.): 41%
- resistant strains (Escherichia coli O157:H7): 6%
- resistance (nontyphoidal Salmonella; Belgian collection (caecal samples; Belgium, France, Netherlands)): 8%
- resistance (nontyphoidal Salmonella; Germany (carcass meat)): 4%
- % S (S. pneumoniae (SPN) [17]; 1998): 99%
- % S (S. pneumoniae (SPN) [17]; 1999): 98%
- % S (S. pneumoniae (SPN) [17]; 2000): 99%
- % S (S. pneumoniae (SPN) [17]; 2001): 100%
- % S (S. pneumoniae (SPN) [17]; 2002): 99%
- % S (S. pneumoniae (SPN) [17]; 2003): 100%

Molecule: NC[C@H]1O[C@H](O[C@H]2[C@H](O)[C@@H](O[C@H]3O[C@H](CO)[C@@H](O)[C@H](N)[C@H]3O)[C@H](N)C[C@@H]2N)[C@H](O)[C@@H](O)[C@@H]1O [kanamycin]
- resistant strains (Escherichia coli O157:H7): 3.3%

Molecule: CN[C@@H]1[C@H](O)[C@H](NC)[C@H]2O[C@@]3(O)C(=O)C[C@@H](C)O[C@H]3O[C@@H]2[C@H]1O [spectinomycin]
- resistance rate (NCCLS M100-S13) [18]: 100%
- resistance rate (NCCLS M100-S13) [19]: 87%
- resistance rate (NCCLS M100-S13) [20]: 99%
- resistance (Salmonella spp.): 50%
- MIC (N.gonorrhoeae): 16 µg/mL (≈ 48.1 µM)
- MIC (N.gonorrhoeae; strain 76mu6): 16 µg/mL (≈ 48.1 µM)
- MIC (N.gonorrhoeae; strain 76mu10): 8 µg/mL (≈ 24.1 µM)
- MIC (N.gonorrhoeae; strain 92mu6): 8 µg/mL (≈ 24.1 µM)
- MIC (N.gonorrhoeae; strain 92mu13): 4 µg/mL (≈ 12 µM)

Molecule: NCC[C@H](O)C(=O)N[C@@H]1C[C@H](N)[C@@H](O[C@H]2O[C@H](CN)[C@@H](O)[C@H](O)[C@H]2O)[C@H](O)[C@H]1O[C@H]1O[C@H](CO)[C@@H](O)[C@H](N)[C@H]1O [amikacin]
- per cent susceptible (E. coli [21]): 99%
- resistant isolates (Acinetobacter): 62.1%
- MIC (K. pneumoniae): 4 µg/mL (≈ 6.83 µM)
- resistance rate (NCCLS M100-S13) [18]: 0%
- Susceptible isolates (Pseudomonas aeruginosa): 100%
- resistance rate (NCCLS M100-S13) [19]: 0%
- per cent susceptible (Enterobacteriaceae): 99%
- resistance rate (NCCLS M100-S13) [20]: 1%
- strains with bactericidal activity (≥3 log10 cfu/ml decrease) (Nocardia spp. [8]): 7 strains
- susceptibility rate (Escherichia coli [22]; paediatric surgical unit (PSU)): 62%
- susceptibility rate (Escherichia coli [22]; paediatric units (PU)): 99%
- per cent susceptible (Klebsiella): 98%
- MIC50 (Nocardia spp. [13]; Nocardia): 0.38 µg/mL (≈ 0.649 µM)
- MIC90 (Nocardia spp. [13]; Nocardia): 1 µg/mL (≈ 1.71 µM)
- MIC range (Nocardia spp. [13]; read after 48 and 72 h): 0.016 to 2 µg/mL
- % susceptible ([23]; A/P (N = 200)): 91%
- % susceptible ([23]; EU (N = 354)): 99%
- % susceptible ([23]; NA (N = 163)): 99%
